In patent US20040029254A1, “Method of screening anti-bacterial agents for effectiveness in treating persistant intracellular infections” (University of Washington, priority 2002, published 2004):
Values after ≈ are worked out from the molar mass of the structure shown.

How the values were obtained:
Type in all cases: cell-based
[1] = test system: C. trachomatis B,D,E,F,G,H,I,Ia,J,K (human genital serovars); test: Anti-bacterial susceptibilities of reference strains
[2] = test system: C. trachomatis L2 (LGV serovar); test: as above
[3] = test system: C. trachomatis MoPn (mouse pneumonitis strain); test: as above
[4] = test system: C. suis R-19 (porcine strain); settings: McCoy cells; for MCC (microtiter): one freeze-thaw passage in microtiter plates; for MCC1 (shell vial): one passage in shell vials; for MIC (microtiter): tetracycline-resistant strain; for MCC3 (shell vial): three passages in shell vials
[5] = test system: clinical isolates of C. trachomatis; test: microbe, parasite or virus in culture

C[C@H]1c2cccc(O)c2C(=O)C2=C(O)[C@]3(O)C(=O)C(C(N)=O)=C(O)[C@@H](N(C)C)[C@@H]3[C@@H](O)[C@@H]21 [Doxycycline, doxycycline]
MCC1 (shell vial) [1]: >8 µg/mL
MCC3 (shell vial) [1]: 16 to 32 µg/mL
MCC (microtiter) [1]: 0.125 µg/mL
MCC1 (shell vial) [2]: >8 µg/mL
MCC3 (shell vial) [2]: 32 µg/mL
MCC (microtiter) [2]: 0.125 µg/mL
MCC1 (shell vial) [3]: >8 µg/mL
MCC3 (shell vial) [3]: 64 µg/mL
MCC (microtiter) [3]: 0.5 µg/mL
MCC (microtiter) [4]: 2.0 µg/mL
MCC1 (shell vial) [4]: >8 µg/mL
MIC (microtiter) [4]: 1.0 µg/mL (≈ 2.25 µM)
MCC3 (shell vial) [4]: >128 µg/mL
MCC1 [5]: 4 to 8 µg/mL
MCC3 [5]: 32 to 64 µg/mL

CC[C@H]1OC(=O)[C@H](C)[C@@H](O[C@H]2C[C@@](C)(OC)[C@@H](O)[C@H](C)O2)[C@H](C)[C@@H](O[C@@H]2O[C@H](C)C[C@H](N(C)C)[C@H]2O)[C@](C)(O)C[C@@H](C)CN(C)[C@H](C)[C@@H](O)[C@]1(C)O [Azithromycin, azithromycin]
MCC1 (shell vial) [1]: >8 µg/mL
MCC3 (shell vial) [1]: 64 µg/mL
MCC (microtiter) [1]: 0.25 µg/mL
MCC1 (shell vial) [2]: >8 µg/mL
MCC3 (shell vial) [2]: 64 µg/mL
MCC (microtiter) [2]: 0.25 µg/mL
MCC1 (shell vial) [3]: >8 µg/mL
MCC3 (shell vial) [3]: 128 µg/mL
MCC (microtiter) [3]: 0.5 µg/mL
MCC (microtiter) [4]: 0.25 µg/mL
MCC1 (shell vial) [4]: >8 µg/mL
MCC3 (shell vial) [4]: >128 µg/mL
MCC1 [5]: 4 to 8 µg/mL
MCC3 [5]: 32 to 64 µg/mL

CC1COc2c(N3CCN(C)CC3)c(F)cc3c(=O)c(C(=O)O)cn1c23 (stereo not drawn) [Ofloxacin, ofloxacin]
MCC1 (shell vial) [1]: >8 µg/mL
MCC3 (shell vial) [1]: >128 µg/mL
MCC (microtiter) [1]: 1.0 µg/mL
MCC1 (shell vial) [2]: >8 µg/mL
MCC3 (shell vial) [2]: >128 µg/mL
MCC (microtiter) [2]: 1.0 µg/mL
MCC1 (shell vial) [3]: >8 µg/mL
MCC3 (shell vial) [3]: >128 µg/mL
MCC (microtiter) [3]: 1.0 µg/mL
MCC (microtiter) [4]: 1.0 µg/mL
MCC1 (shell vial) [4]: >8 µg/mL
MIC (microtiter) [4]: 0.5 µg/mL (≈ 1.38 µM)
MCC3 (shell vial) [4]: >128 µg/mL
MCC1 [5]: 8 to 16 µg/mL
MCC3 [5]: >128 µg/mL

CCCN1CCN(c2cc(O)c3nc4c5c6c7c(C)c(O)c5c(=O)c(c-4oc3c2)NC(=O)/C(C)=C\C=C\[C@H](C)[C@H](O)[C@@H](C)[C@@H](O)[C@@H](C)[C@H](OC(C)=O)[C@H](C)[C@@H](OC)/C=C/O[C@@](C)(O7)C6=O)CC1 [KRM-1657]
MCC1 [5]: 0.0005 to 0.001 µg/mL
MCC3 [5]: 0.001 to 0.002 µg/mL

CO[C@H]1/C=C/O[C@@]2(C)Oc3c(C)c(O)c4c(=O)c(c5oc6cc(N7CCN(CC(C)C)CC7)cc(O)c6nc-5c4c3C2=O)NC(=O)/C(C)=C\C=C\[C@H](C)[C@H](O)[C@@H](C)[C@@H](O)[C@@H](C)[C@H](OC(C)=O)[C@@H]1C [Rifalazil, rifalazil]
MCC1 [5]: 0.001 to 0.002 µg/mL
MCC3 [5]: 0.004 to 0.008 µg/mL
